# Paper PMC5856786, “A DHODH inhibitor increases p53 synthesis and enhances tumor cell killing by p53 degradation blockage” (Nature Communications, 2018)
# How the values were obtained:
# ARN8 cells [1] = assay: SRB growth/viability assay, ARN8; format: cell-based, human; conditions: for effect on cell growth and p53 activation in presence of excess uridine: uridine 100 μM
# Method: SRB assays measuring protein content were performed in 96-well plates as previously described.
# [2] = system: p53 levels in S-phase U2OS cells; assay: p53-FITC/DNA content flow cytometry; format: cell-based; conditions: HZ05 1 μM, 72 h
# Method: The upper left panel is a representative dot plot showing the gating strategy for cells expressing high p53 levels (blue: […] DMSO treated). […] A representative histogram of the fluorescence intensity of FITC-p53 in S-phase cells is shown in the lower right panel. Bar graphs show the average of three independent experiments. […] After an additional 48 h, Annexin V and PI staining was analyzed by flow cytometry. […] Inhibition of p53 degradation in the form of an mdm2 antagonist leads to death of cells in S-phase For the detection of p53, cells were treated as indicated and fixed using Fix/Perm buffer solution (eBiosciences). […] Cells were resuspended in FACS buffer (2 mM EDTA, 0.5% BSA) containing 2 μg mL^−1 FxCycle Violet (Thermo Scientific). Stained cells were acquired on LSRII (BD Biosciences) and analyzed using FlowJo software V10.2.
# RNA levels in ARN8 cells = assay: RNASeq differential expression and gene ontology analysis; format: cell-based, human; conditions: ARN8, 5 h
# Description: Libraries were generated using the NEBNext Ultra Directional RNA Library Prep Kit for Illumina (New England Biolabs). Data are deposited at GEO with the accession code: GSE87577. […] Differential expression and gene ontology analysis are in Supplementary Data 1. Values correspond to the average of three biological repeats.
# ARN8 cells [3] = assay: PI flow cytometry, sub-G1 cells, ARN8; format: cell-based, human; conditions: for DMSO control subtracted effect (cells in sub-G1) / sub-G1 cells: ARN8 72 h
# Method: (§1) Cell cycle distribution analysis was performed on a Becton Dickinson FACScan flow cytometer or FACSCalibur (BD Biosciences) following staining with propidium iodide (PI) or dual labeling with BrdU and PI[36]. These assays were analyzed using CellQuest Pro (BD Biosciences).
# ARN8 cells [4] = assay: BrdU/PI flow cytometry, cell cycle distribution; format: cell-based, human
# Method: as §1
# human mdmx (hdmx) = target: T1, human mdmx (hdmx) (Homo sapiens, UniProt O15151); assay: hdmx binding (CETSA in ARN8 extracts; ELISA with IP3 peptide); conditions: CETSA at 100 μM
# T1 construct: ARN8 soluble cell extracts were prepared for the cellular thermal shift assay (CETSA); endogenous in cells; host or cells: ARN8 human melanoma cells (soluble extract)
# Method: (§2) Levels of gapdh were used to monitor protein loading. e ARN8 or HNDF cells were treated with the indicated compound concentrations for 72 h and subjected to MTT assays. […] Incorporation of ^35S in the p53 immunoprecipitate was determined by autoradiography. The experiment is shown in duplicate
# (§3) corresponds to residues 17−26 of wild-type p53) was determined by ELISA (See
# (§4) supplementary information9). The percentage hdm2/hdmx bound to IP3 relative to the vehicle
# (§5) upon which cycloheximide (CHX) (10 µg mL-1) was added for the indicated periods of time. […]
# p53-null H1299 cells = assay: p53 reporter (CPRG assay) in p53-null H1299 cells transfected with RGCΔFosLacZ; format: cell-based; conditions: H1299, 16 h exposure
# Method: Supplementary Figure 1. HZ compounds increase the levels of p53-induced mRNAs. a) p53-null H1299 cells were transfected with the RGCΔ FosLacZ reporter construct and levels of p53-dependent transcription were determined by CPRG assay following a 16 h exposure to HZ00. A vector expressing wild-type p53 was used as a positive control. The average of three […]
# for 1 hour prior to treatment with 2 µM nutlin-3 for an additional 18 hours. Levels of p53-induced mRNAs and p53 mRNA were determined by q-RT-PCR. tbp was used as a control.
# Values correspond to the average of three technical repeats with standard deviation used for error. RNA extraction and q-RT-PCR were performed as previously described - see supplementary information7. c) HCT116 p53 wild-type or p53 deficient cells were treated […]
# supplementary information for cell line description8. d) ARN8 cells treated for 6 hours with HZ00 at indicated doses. Levels of p53 mRNA were determined by q-RT-PCR. […]
# [5] = system: P-chk1 (Ser 345)/chk1 in HNDF cells; assay: P-chk1/chk1 ratio by western blotting, HNDF; format: cell-based, human; conditions: second blot (taken as HNDF)
# Method: (Sigma, #N9162) for a further 2 h. […]
# (Ser 345) and chk1 were detected. Ponceau S staining was used to monitor loading. […]
# human mdm2 (hdm2) = target: T2, human mdm2 (hdm2) (Homo sapiens, UniProt Q00987); assay: hdm2 binding (CETSA in ARN8 extracts; ELISA with IP3 peptide); conditions: CETSA at 100 μM
# T2 construct: ARN8 soluble cell extracts were prepared for the cellular thermal shift assay (CETSA); endogenous in cells; host or cells: ARN8 human melanoma cells (soluble extract)
# Method: as §2, §3, §4, §5
# p53 in ARN8 cells = assay: p53 synthesis assay (35S-Met-Cys pulse labeling, p53 immunoprecipitation); format: cell-based, human; conditions: 20 μM, within 6 h of treatment
# Method: ARN8 cells were seeded at 2.5 × 10^6 cells per 10 cm dish. […] After 5.5 h, medium was substituted for Met- and Cys-deprived DMEM, supplemented with 5 μM nutlin-3, 0.5% FBS and 4 mM L-glutamine for 20 min in the presence of the corresponding compounds. ^35S-Met-Cys (50 μCi mL^−1) was added for 30 min. […] Samples were centrifuged at 16,000×g for 15 min at 4 °C. Volume of 30 µL of each supernatant was stored as input. The remaining supernatants were incubated with 5 µg anti-p53 DO-1 antibody and rotated overnight at 4 °C. Samples were transferred to Dynabeads Protein G (# D10004D, Life Technologies) and rotated for 30 min at RT. Samples were centrifuged briefly for 10 s and placed in front of a magnet. […] Pellets were resuspended in 3× LDS containing 100 mM DTT. Samples were separated by SDS-PAGE and the gels were incubated in enhancer solution (#6NE9741, PerkinElmer), dried and exposed to Carestream Kodak BioMax MR films at −80 °C.
# T1 sequence (O15151 whole entry): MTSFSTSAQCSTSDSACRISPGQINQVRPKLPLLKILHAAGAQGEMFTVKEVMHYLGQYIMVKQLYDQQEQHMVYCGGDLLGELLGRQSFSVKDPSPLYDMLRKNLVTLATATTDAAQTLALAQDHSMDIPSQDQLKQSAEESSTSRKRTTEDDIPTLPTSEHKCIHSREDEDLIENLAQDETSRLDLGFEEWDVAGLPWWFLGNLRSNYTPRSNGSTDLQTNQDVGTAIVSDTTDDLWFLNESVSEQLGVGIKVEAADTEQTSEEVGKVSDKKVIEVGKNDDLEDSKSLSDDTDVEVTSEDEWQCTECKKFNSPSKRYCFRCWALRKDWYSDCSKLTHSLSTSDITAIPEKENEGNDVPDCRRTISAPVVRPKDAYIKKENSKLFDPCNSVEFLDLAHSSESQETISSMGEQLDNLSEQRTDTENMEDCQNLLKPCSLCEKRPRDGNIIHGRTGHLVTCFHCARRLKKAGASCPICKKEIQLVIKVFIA
# T2 sequence (Q00987 whole entry): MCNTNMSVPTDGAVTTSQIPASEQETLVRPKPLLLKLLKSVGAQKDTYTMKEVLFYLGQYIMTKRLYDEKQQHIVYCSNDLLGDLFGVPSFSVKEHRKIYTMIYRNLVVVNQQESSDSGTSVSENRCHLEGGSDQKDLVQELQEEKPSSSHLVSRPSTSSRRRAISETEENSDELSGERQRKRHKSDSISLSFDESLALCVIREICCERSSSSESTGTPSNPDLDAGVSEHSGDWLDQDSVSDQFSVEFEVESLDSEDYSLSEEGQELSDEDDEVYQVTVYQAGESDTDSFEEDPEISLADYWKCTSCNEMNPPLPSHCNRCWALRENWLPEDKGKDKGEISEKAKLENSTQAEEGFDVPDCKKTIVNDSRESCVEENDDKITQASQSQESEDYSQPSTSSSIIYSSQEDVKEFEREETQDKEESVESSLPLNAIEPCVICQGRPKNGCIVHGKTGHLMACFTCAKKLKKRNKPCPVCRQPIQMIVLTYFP
smiles,measurement,setting,value
O=C(NC1CCCc2c1cnn2-c1ccccc1F)c1onc2c1CCCC2 (stereo not shown) [HZ05],effect of serum albumin concentration on activity,"ARN8 cells [1]; ARN8, 72 h, increasing BSA",affected to a lesser degree than brequinar
same,effect on cell growth and p53 activation in presence of excess uridine,ARN8 cells [1]; ARN8,prevented by addition of excess uridine
same,concentration reducing cell viability or growth,"ARN8 cells [1]; cultured cells, authors' response in peer review file",~160 nM
same,p53 levels in S-phase cells,[2],higher levels of p53 than vehicle treated controls
same,"log2FoldChange, drug vs DMSO, gene ENSG00000121101",RNA levels in ARN8 cells; sheet Drug HZ05vsDMSO (5 μM),-2.498
same,"log2FoldChange, drug vs DMSO, gene ENSG00000197153",RNA levels in ARN8 cells; sheet Drug HZ05vsDMSO (5 μM),-1.694
same,"log2FoldChange, drug vs DMSO, gene ENSG00000204569",RNA levels in ARN8 cells; sheet Drug HZ05vsDMSO (5 μM),-2.424
same,"log2FoldChange, drug vs DMSO, gene ENSG00000221926",RNA levels in ARN8 cells; sheet Drug HZ05vsDMSO (5 μM),-1.667
same,"log2FoldChange, drug vs DMSO, gene ENSG00000276410",RNA levels in ARN8 cells; sheet Drug HZ05vsDMSO (5 μM),-1.7121
same,DMSO control subtracted effect (cells in sub-G1),ARN8 cells [3]; HZ05 250 nM + nutlin-3a 0 µM,0.06
same,DMSO control subtracted effect (cells in sub-G1),ARN8 cells [3]; HZ05 250 nM + nutlin-3a 5 µM,0.27
same,DMSO control subtracted effect (cells in sub-G1),ARN8 cells [3]; HZ05 250 nM + nutlin-3a 10 µM,0.48
same,DMSO control subtracted effect (cells in sub-G1),ARN8 cells [3]; HZ05 250 nM + nutlin-3a 15 µM,0.69
same,DMSO control subtracted effect (cells in sub-G1),ARN8 cells [3]; HZ05 250 nM + nutlin-3a […],0.61
same,sub-G1 cells,ARN8 cells [3]; HZ05 400 nM (Fig. 6c),16.61%
same,sub-G1 cells,ARN8 cells [3]; HZ05 400 nM + nutlin-3a 1 μM,36.73%
same,sub-G1 cells,ARN8 cells [3]; HZ05 400 nM + nutlin-3a 2.5 μM,46.63%
same,sub-G1 cells,ARN8 cells [3]; HZ05 400 nM + nutlin-3a 5 μM,54.06%
same,DMSO control subtracted effect (cells in sub-G1),ARN8 cells [3]; HZ05 500 nM + nutlin-3a 0 µM,0.08
same,DMSO control subtracted effect (cells in sub-G1),ARN8 cells [3]; HZ05 500 nM + nutlin-3a 5 µM,0.35
same,DMSO control subtracted effect (cells in sub-G1),ARN8 cells [3]; HZ05 500 nM + nutlin-3a 10 µM,0.60
same,DMSO control subtracted effect (cells in sub-G1),ARN8 cells [3]; HZ05 500 nM + nutlin-3a 15 µM,0.67
same,DMSO control subtracted effect (cells in sub-G1),ARN8 cells [3]; HZ05 500 nM + nutlin-3a […],0.58
same,sub-G1 cells,ARN8 cells [3]; HZ05 1 μM (Fig. 6b),31.06%
same,DMSO control subtracted effect (cells in sub-G1),ARN8 cells [3]; HZ05 1000 nM + nutlin-3a 10 µM,0.56
same,DMSO control subtracted effect (cells in sub-G1),ARN8 cells [3]; HZ05 1000 nM + nutlin-3a 15 µM,0.71
same,DMSO control subtracted effect (cells in sub-G1),ARN8 cells [3]; HZ05 1000 nM + nutlin-3a […],0.62
same,sub-G1 cells,ARN8 cells [3]; HZ05 2.5 μM (Fig. 6b),35.04%
same,DMSO control subtracted effect (cells in sub-G1),ARN8 cells [3]; HZ05 […] + nutlin-3a 0 µM,0.03
same,DMSO control subtracted effect (cells in sub-G1),ARN8 cells [3]; HZ05 […] + nutlin-3a 5 µM,0.19
same,DMSO control subtracted effect (cells in sub-G1),ARN8 cells [3]; HZ05 […] + nutlin-3a 10 µM,0.39
same,DMSO control subtracted effect (cells in sub-G1),ARN8 cells [3]; HZ05 […] + nutlin-3a 15 µM,0.63
same,synergy with nutlin-3a (cell kill),"ARN8 cells [3]; ARN8 in vitro, 72 h",strong synergistic cell kill
same,accumulation of cells in S-phase,ARN8 cells [4],accumulation of ARN8 cells in S-phase
O=C(NC1CCCc2c1cnn2-c1ccccc1F)c1ccccn1 (stereo not shown) [HZ00],effect on cell growth and p53 activation in presence of excess uridine,ARN8 cells [1]; ARN8,completely abolished
same,binding to human mdmx (hdmx),human mdmx (hdmx),not detected
same,p53-reporter activity in p53-null cells,p53-null H1299 cells,did not result in p53-reporter activity
same,P-chk1/chk1,"[5]; HZ00 10 µM, 24 h",0.98
same,P-chk1/chk1,"[5]; HZ00 10 µM, 48 h",0.89
same,P-chk1/chk1,"[5]; HZ00 10 µM, 72 h",1.13
same,P-chk1/chk1,"[5]; HZ00 20 µM, 24 h",1.08
same,P-chk1/chk1,"[5]; HZ00 20 µM, 48 h",1.05
same,P-chk1/chk1,"[5]; HZ00 20 µM, 72 h",1.07
same,binding to human mdm2 (hdm2),human mdm2 (hdm2),does not bind
same,p53 synthesis,p53 in ARN8 cells,increase p53 synthesis
same,"log2FoldChange, drug vs DMSO, gene ENSG00000166436",RNA levels in ARN8 cells; sheet Drug HZ00vsDMSO (20 μM),-1.5997
same,"log2FoldChange, drug vs DMSO, gene ENSG00000197153",RNA levels in ARN8 cells; sheet Drug HZ00vsDMSO (20 μM),-1.477
same,"log2FoldChange, drug vs DMSO, gene ENSG00000204569",RNA levels in ARN8 cells; sheet Drug HZ00vsDMSO (20 μM),-2.244
same,"log2FoldChange, drug vs DMSO, gene ENSG00000221926",RNA levels in ARN8 cells; sheet Drug HZ00vsDMSO (20 μM),-1.707
same,"log2FoldChange, drug vs DMSO, gene ENSG00000277224",RNA levels in ARN8 cells; sheet Drug HZ00vsDMSO (20 μM),-1.408
same,synergy with nutlin-3 (cell kill),"ARN8 cells [3]; ARN8 in vitro, 72 h, additivity and Bliss independence models",synergistic cell kill
same,accumulation of cells in S-phase,ARN8 cells [4],accumulates ARN8 cells in S-phase
